The nature of one data set: in vitro. Conditions: human, hela cells, % viability.
Turning to `CCN(CC)CCSc1nc2sc3c(c2c(=O)n1-c1ccc(OC)cc1)CCCC3` [CBK263308], the viability at 28.5 h, 10 µM was 89.3%.
For `O=C(O)c1ccc2c(c1)C(=O)N(c1ccc(-c3nc(-c4ccccc4)c4ccccc4n3)cc1)C2=O` [CBK263311], the viability at 28.5 h, 10 µM came to 101%.
Turning to `O=c1[nH]c(=O)c2nnc(N/N=C\c3ccc(O)cc3)nc2[nH]1` [CBK263312], the viability at 28.5 h, 10 µM is 94.1%.
On the same count and under the same terms, the result for `Cc1ccc(S(=O)(=O)Nc2cc(Sc3nc(C)cc(C)n3)c(O)c3ccccc23)cc1` [CBK263313] reads 79%.
On the same count and under the same terms, the result for `COc1ccc(CNCc2ccc(Cl)cc2)cc1OC` [CBK263315] reads 95.4%.
Take `COc1cc(/C=N/Nc2ccc(C(=O)O)cc2)cc(Br)c1O` [CBK263318]: the viability at 28.5 h, 10 µM was 95.8%.
On to `COc1ccc(C(=O)N2CCN(Cc3cccnc3)CC2)cc1OC` [CBK263321], for which the viability at 28.5 h, 10 µM was found to be 99.3%.
Take `N#C/C(=C\c1ccc(-c2ccc(C(=O)O)cc2)o1)C(=O)NCc1ccco1` [CBK263322]: the viability at 28.5 h, 10 µM amounted to 101%.
Same read-out and setting: then `COc1cc(OC)c(OC)cc1CN1CCN(S(=O)(=O)c2ccc(C)cc2)CC1` [CBK263323], with 92.4%.
Still for that read-out and setting: then `O=C(c1cccnc1)N1CCN(Cc2cccc(Oc3ccccc3)c2)CC1` [CBK263326G], with 101%; and `COc1ccc(Br)cc1CN(CCc1ccc2c(c1)OCO2)Cc1cccnc1` [CBK263327G], with 96.8%; and `Cc1cc(/C=N/NC(=O)c2ccc(CN3CCOCC3)cc2)c(C)n1-c1ccccc1` [CBK263329], with 100%.
On the same count and under the same terms, then `COc1ccc(S(=O)(=O)N2CCN(Cc3cc(OC)c(OC)c(OC)c3)CC2)cc1` [CBK263330], with 89.3%.
Turning to `CCOC(=O)C1CCN(Cn2nc(O)ccc2=O)CC1` [CBK263331], the viability at 28.5 h, 10 µM turned out to be 90.7%.
Turning to `CCN(CC)CCSc1nc(O)c(-c2ccccc2)c(=O)n1-c1ccccc1` [CBK263335C], the viability at 28.5 h, 10 µM is 111%.
On the same count and under the same terms, the result for `O=C(O)c1cc(NC(=O)c2cccc(N3C(=O)c4ccccc4C3=O)c2)cc(C(=O)O)c1` [CBK263338] reads 96.8%; that for `C=CCSc1nnc(CSc2nc3sc4c(c3c(=O)[nH]2)CCCC4)n1-c1ccccc1` [CBK263341], 94.4%.
Regarding `COc1ccc(/C=C(/NC(=O)c2cccc(Cl)c2)C(=O)Nc2ccccc2)cc1` [CBK263342], the viability at 28.5 h, 10 µM was determined as 107%.
As to `O=C(O)/C(=C\c1ccccc1)NC(=O)c1cccc([N+](=O)[O-])c1` [CBK263348], the viability at 28.5 h, 10 µM was found to be 96.3%.
On the same count and under the same terms, the result for `O=C(CN1CCCCC1)Nc1c(-c2ccccc2)c2cc(Br)ccc2[nH]c1=O` [CBK263351] reads 94.7%.
For the compound `COc1ccc(C2C(C(=O)c3ccccc3)=C(O)C(=O)N2CCN(C)C)cc1OC` (centres unmarked) [CBK263352], the viability at 28.5 h, 10 µM was 119%.
`COc1ccc(S(=O)(=O)N2CCN(C(=O)COc3ccc(C)cc3)CC2)cc1` [CBK263354]: the viability at 28.5 h, 10 µM is 90.2%.
Still for that read-out and setting: the result for `CC1CN(S(=O)(=O)c2ccc3c(c2)C(=O)c2cc(S(=O)(=O)N4CC(C)OC(C)C4)ccc2-3)CC(C)O1` (centres unmarked) [CBK263355] reads 101%.
`O=[N+]([O-])c1ccc2nc(Sc3nc4ccccc4[nH]3)sc2c1` [CBK263356]: the viability at 28.5 h, 10 µM is 89.8%.
As to `O=C(O)CCN1C(=O)c2ccc(Oc3ccc([N+](=O)[O-])cc3)cc2C1=O` [CBK263357], the viability at 28.5 h, 10 µM is 96.2%.
On the same count and under the same terms, then `CC(C)CCc1c(O)nc(SCCN2CCOCC2)n(-c2ccccc2)c1=O` [CBK263363C], with 85.5%; and `C=CCN(c1ccc(C(=O)O)cc1)S(=O)(=O)c1ccc(/C=C/C(=O)O)cc1` [CBK263364], with 95.8%.
Same read-out and setting: the result for `C=C(Br)Cn1c(COc2cccc3ccccc23)nc2ccccc21` [CBK263373] reads 97.3%.
On the same count and under the same terms, then `N=C(N)NS(=O)(=O)c1ccc(N/C=C\C(=O)c2ccc3ccccc3c2)cc1` [CBK263374], with 98.6%; and `COc1cc(NS(=O)(=O)c2ccc(N/C=C3/CCc4ccccc4C3=O)cc2)nc(OC)n1` [CBK263376], with 82.4%; and `COc1ccc(CN2CCN(CCCc3ccccc3)CC2)c(OC)c1` [CBK263378], with 95.1%.
On to `CC(C)CCc1c(O)nc(SCCN(C)C)[nH]c1=O` [CBK263382], for which the viability at 28.5 h, 10 µM amounted to 95.3%.
The same measure, in the same setting: the result for `O=C(C1=C(O)C(=O)N(Cc2cccnc2)C1c1cccc([N+](=O)[O-])c1)c1ccccc1` (centres unmarked) [CBK263383] reads 107%; that for `Cc1n[nH]c(C)c1CCC(=O)N/N=C\c1cccc(Oc2ccccc2)c1` [CBK263384], 98.8%; that for `CN(C)c1ccc(C2C(C(=O)c3ccccc3)=C(O)C(=O)N2CCCC(=O)O)cc1` (centres unmarked) [CBK263393], 96.4%.
As for `Cc1n[nH]c(C)c1CCC(=O)N/N=C\c1ccc(Cl)c(Cl)c1` [CBK263395], the viability at 28.5 h, 10 µM is 97.4%.
The same measure, in the same setting: the result for `Cn1cccc1-c1cc(C(=O)N/N=C/c2cccc(O)c2)[nH]n1` [CBK263397] reads 89.9%.
Take `CCOc1ccc(CN2CCN(C(=O)c3ccc(-c4ccccc4)cc3)CC2)cc1` [CBK263399]: the viability at 28.5 h, 10 µM came to 99.9%.
For the compound `O=C(c1cc(S(=O)(=O)N2CCCCC2)c(Cl)cc1N1CCOCC1)N1CCOCC1` [CBK263400], the viability at 28.5 h, 10 µM stood at 82.5%.
Regarding `CC(C)CNc1cc(Cl)c(S(=O)(=O)NCC(C)C)cc1C(=O)O` [CBK263405], the viability at 28.5 h, 10 µM was 93.5%.
In the case of `O=C(CN1CCN(CCN2C(=O)c3cccc4cccc(c34)C2=O)CC1)c1ccc(F)cc1` [CBK263414B], the viability at 28.5 h, 10 µM stood at 94.5%.
The same measure, in the same setting: then `O=C(Nc1ccc(-c2nc3ccccc3o2)c(O)c1)c1ccc(-c2ccc([N+](=O)[O-])cc2)o1` [CBK263416], with 108%; and `COc1ccc(/N=C2\NC(=O)/C(=C\C=C\c3ccccc3)S2)cc1` [CBK263417], with 94.2%; and `O=[N+]([O-])c1cccc(-c2csc(N/N=C\c3cccc(O)c3)n2)c1` [CBK263418], with 95.5%.
Still for that read-out and setting: the result for `O=C(Nc1ccc2oc(-c3cccnc3)nc2c1)c1cccc(OCc2ccccc2)c1` [CBK263420] reads 94.4%.
Same read-out and setting: then `CCc1ccc2oc(-c3ccc(NC(=O)COc4ccc(Cl)cc4Cl)cc3O)nc2c1` [CBK263424], with 104%; and `O=C(Nc1ccccc1)C(N1CCCCC1)N1CCCCC1` [CBK263425], with 105%; and `O=C(Nc1ccc2nc(SCc3ccc([N+](=O)[O-])cc3)sc2c1)c1ccccc1` [CBK263427], with 98.4%.
Consider `COc1ccc(CC(=O)Nc2ccc(S(N)(=O)=O)cc2)cc1OC` [CBK263429], for which the viability at 28.5 h, 10 µM is 92%.
As to `O=C(NCc1ccccc1)c1ccc(CN2CCC(Cc3ccccc3)CC2)cc1` [CBK263432], the viability at 28.5 h, 10 µM turned out to be 87.5%.
As to `CCCCOc1cccc(C(=O)Nc2ccc(-c3nc4ccccc4o3)c(O)c2)c1` [CBK263435], the viability at 28.5 h, 10 µM was found to be 101%.
Still for that read-out and setting: the result for `O=C(Nc1ccc2oc(-c3cccnc3)nc2c1)c1ccc(Br)o1` [CBK263436] reads 112%; that for `Cc1cc2nc(-c3cc(NC(=O)/C=C/c4cccc([N+](=O)[O-])c4)ccc3O)oc2cc1C` [CBK263438], 94.1%; that for `CCOc1cc(OCC)cc(C(=O)Nc2ccc(-c3nc4ncccc4o3)cc2)c1` [CBK263440], 96.8%.
Same read-out and setting: then `O=C(NCCCN1CCOCC1)c1cc2cc([N+](=O)[O-])ccc2oc1=O` [CBK263441], with 90.9%.
Same read-out and setting: the result for `O=C(COc1ccc([N+](=O)[O-])cc1)Nc1ccc2oc(-c3ccc(Br)cc3)nc2c1` [CBK263444] reads 106%.
As to `COc1ccc2[nH]c(SCC(=O)Nc3ccc(Br)cc3)nc2c1` [CBK263447], the viability at 28.5 h, 10 µM came to 91%.
In the case of `N=c1n(CCN2CCCC2)c2ccccc2n1CC(O)c1ccc(Cl)c(Cl)c1` (centres unmarked) [CBK263448C], the viability at 28.5 h, 10 µM was determined as 83.6%.
Still for that read-out and setting: the result for `CC1CCCC(N2CCN(Cc3ccccn3)CC2)C1` (centres unmarked) [CBK263450] reads 93%; that for `O=C(Nc1ccc(-c2nnc(-c3ccco3)o2)cc1)C(c1ccccc1)c1ccccc1` [CBK263452], 106%; that for `Cc1no[n+]([O-])c1COc1cccc(/C=C2\N=C(c3ccccc3)OC2=O)c1` [CBK263454], 96.3%.
The same measure, in the same setting: then `CCN(CC)CCn1c(=N)n(CC(=O)c2ccc(Cl)c(Cl)c2)c2ccccc21` [CBK263455B], with 91.5%; and `CC(C)C(=O)Nc1ccc(Oc2ccc(C(=O)O)c(C(=O)O)c2)cc1` [CBK263463], with 86.4%.
Still for that read-out and setting: then `COc1ccc(C(=O)Nc2ccccc2)cc1NC(=O)c1cc(C(F)(F)F)cc(C(F)(F)F)c1` [CBK263465], with 90%; and `COc1nnc(-c2ccc(C)cc2)c2ccccc12` [CBK263466], with 92%.
`CC(C)(C)c1cc(N2C(=O)C(O)=C(C(=O)c3ccc(Cl)cc3)C2c2cccc([N+](=O)[O-])c2)no1` (centres unmarked) [CBK263470]: the viability at 28.5 h, 10 µM amounted to 92.8%.
Take `O=C(CN1C(=O)c2ccc([N+](=O)[O-])cc2C1=O)Nc1cc(Cl)ccc1C(=O)O` [CBK263472]: the viability at 28.5 h, 10 µM was 97.1%.
On the same count and under the same terms, the result for `CC1CCC(N2CCN(Cc3ccccn3)CC2)CC1` (centres unmarked) [CBK263473] reads 90.6%.

Staying with this data set, now noted: human, hela cells, % viability, bulk resorufin, single well.
With `COc1cc(/C=C2/C(=O)NC(=O)N(c3ccccc3)C2=O)cc(Cl)c1O` [CBK263361], the viability at 28.5 h, 10 µM is 93.3%.
In the case of `CCOc1cccc(N2C(=O)/C(=C\c3ccc(-c4ccc(C(=O)O)c(Cl)c4)o3)C(=O)NC2=S)c1` [CBK263403], the viability at 28.5 h, 10 µM amounted to 92.1%.
The same measure, in the same setting: the result for `Cc1cc(Br)ccc1N1C(=O)NC(=O)/C(=C\c2ccc(-c3ccc(S(N)(=O)=O)cc3)o2)C1=O` [CBK263413] reads 97.4%.
Still for that read-out and setting: the result for `NS(=O)(=O)c1ccc(-c2ccc(/C=C3\C(=O)NC(=O)N(c4ccc(Br)cc4)C3=O)o2)cc1` [CBK263423] reads 93.2%.
As for `Cc1cc(C=C2C(=O)NC(=O)NC2=O)c(C)n1C1CCCCC1` [CBK263426], the viability at 28.5 h, 10 µM stood at 93.6%.
Still for that read-out and setting: the result for `COc1cc(C=C2C(=O)NC(=S)NC2=O)ccc1OCc1c(C)no[n+]1[O-]` [CBK263467] reads 95.8%.

By viability is commonly meant a read-out of living cells in per cent, often relative to untreated cells.

(Values after PMC12040169 (PLOS Biology, 2025).)
